Results from article PMC5218480 (PLoS ONE, 2017).

System: MV-4-11 cells
Experiment: Gene expression microarray analysis (Affymetrix PrimeView) and GSEA
Assay type: cell-based, human
Parameters: RFU PODN (11730768_x_at) / Fold change /veh PODN (11730768_x_at) / RFU LINC00158 (11744669_a_at) / Fold change /veh LINC00158 (11744669_a_at) / RFU DUSP10 (11751237_a_at) / Fold change /veh DUSP10 (11751237_a_at) / RFU ID3 (11757404_x_at) / Fold change /veh ID3 (11757404_x_at) / RFU PLEKHG5 (11737974_s_at) / Fold change /veh PLEKHG5 (11737974_s_at) / RFU LRRC4B (11730491_at) / Fold change /veh LRRC4B (11730491_at) / RFU GIMAP4 (11747438_a_at) / Fold change /veh GIMAP4 (11747438_a_at) / RFU KRT8 (11758183_x_at) / Fold change /veh KRT8 (11758183_x_at) / RFU CNN1 (11734310_a_at) / Fold change /veh CNN1 (11734310_a_at) / RFU VPS37D (11726825_at) / Fold change /veh VPS37D (11726825_at) / RFU C10orf10 (11716522_x_at) / Fold change /veh C10orf10 (11716522_x_at) / RFU KIR2DL2 /// KIR2DL4 /// KIR2DL5A /// KIR2DL5B /// KIR2DS1 /// KIR2DS2 /// KIR2DS3 /// KIR2DS4 /// KIR3DL3 /// KIR3DL3 /// KIR3DS1 (11738374_at) / Fold change /veh KIR2DL2 /// KIR2DL4 /// KIR2DL5A /// KIR2DL5B /// KIR2DS1 /// KIR2DS2 /// KIR2DS3 /// KIR2DS4 /// KIR3DL3 /// KIR3DL3 /// KIR3DS1 (11738374_at) / RFU C1QL1 (11718748_at) / Fold change /veh C1QL1 (11718748_at) / RFU TMPRSS4 (11747572_a_at) / Fold change /veh TMPRSS4 (11747572_a_at) / RFU HAMP (11756126_x_at) / Fold change /veh HAMP (11756126_x_at) / RFU RNFT2 (11725882_a_at) / Fold change /veh RNFT2 (11725882_a_at) / RFU NR4A2 (11747474_a_at) / Fold change /veh NR4A2 (11747474_a_at) / RFU ABCC12 (11746883_a_at) / Fold change /veh ABCC12 (11746883_a_at) / RFU TMEM136 (11760407_x_at) / Fold change /veh TMEM136 (11760407_x_at) / RFU CLDN22 /// WWC2 (11732394_at) / Fold change /veh CLDN22 /// WWC2 (11732394_at) / RFU HLA-DPB1 (11760878_x_at) / Fold change /veh HLA-DPB1 (11760878_x_at) / RFU SPINT1 (11716480_a_at) / Fold change /veh SPINT1 (11716480_a_at) / RFU GAP43 (11754022_s_at) / Fold change /veh GAP43 (11754022_s_at) / RFU A4GNT (11735810_at) / Fold change /veh A4GNT (11735810_at) / RFU PRB3 (11715151_x_at) / Fold change /veh PRB3 (11715151_x_at) / RFU TUBB4B (11761932_at) / Fold change /veh TUBB4B (11761932_at) / RFU CAPN14 (11732068_a_at) / Fold change /veh CAPN14 (11732068_a_at) / RFU TMCC2 (11721928_a_at) / Fold change /veh TMCC2 (11721928_a_at) / RFU IRGQ (11745062_a_at) / Fold change /veh IRGQ (11745062_a_at) / RFU FAM174B (11720279_a_at) / Fold change /veh FAM174B (11720279_a_at) / RFU TMPRSS4 (11748680_a_at) / Fold change /veh TMPRSS4 (11748680_a_at) / RFU FAM212B (11763350_a_at) / Fold change /veh FAM212B (11763350_a_at) / RFU PLEKHG5 (11743358_a_at) / Fold change /veh PLEKHG5 (11743358_a_at) / RFU ZSCAN30 (11745921_a_at) / Fold change /veh ZSCAN30 (11745921_a_at) / RFU CMKLR1 (11741424_a_at) / Fold change /veh CMKLR1 (11741424_a_at) / RFU LOC101060620 /// MAPK8IP1 (11723275_at) / Fold change /veh LOC101060620 /// MAPK8IP1 (11723275_at) / RFU SPTSSB (11747773_x_at) / Fold change /veh SPTSSB (11747773_x_at) / RFU PRSS12 (11739890_at) / Fold change /veh PRSS12 (11739890_at) / RFU BIN1 (11741810_x_at) / Fold change /veh BIN1 (11741810_x_at) / RFU WNT11 (11732464_a_at) / Fold change /veh WNT11 (11732464_a_at) / RFU C10orf10 (11716521_a_at) / Fold change /veh C10orf10 (11716521_a_at) / RFU C5orf56 (11738089_at) / Fold change /veh C5orf56 (11738089_at) / RFU CYB561 (11721691_x_at) / Fold change /veh CYB561 (11721691_x_at) / RFU ANKRD19P (11752326_a_at) / Fold change /veh ANKRD19P (11752326_a_at) / RFU OR2T12 /// OR2T33 /// OR2T8 (11738714_s_at) / Fold change /veh OR2T12 /// OR2T33 /// OR2T8 (11738714_s_at) / RFU VCAN (11748164_a_at) / Fold change /veh VCAN (11748164_a_at) / RFU JSRP1 (11732532_at) / Fold change /veh JSRP1 (11732532_at) / RFU KRTAP10-11 (11738290_x_at) / Fold change /veh KRTAP10-11 (11738290_x_at) / RFU MYO3A (11730013_a_at) / Fold change /veh MYO3A (11730013_a_at) / RFU EBF3 (11725865_a_at) / Fold change /veh EBF3 (11725865_a_at) / RFU CAMK2N1 (11719241_x_at) / Fold change /veh CAMK2N1 (11719241_x_at) / RFU C5orf56 (11738088_a_at) / Fold change /veh C5orf56 (11738088_a_at) / RFU OLFML3 (11715873_a_at) / Fold change /veh OLFML3 (11715873_a_at) / RFU LOC100653217 /// NTM (11731650_a_at) / Fold change /veh LOC100653217 /// NTM (11731650_a_at) / RFU MAPK11 (11762145_a_at) / Fold change /veh MAPK11 (11762145_a_at) / RFU FIZ1 (11724087_x_at) / Fold change /veh FIZ1 (11724087_x_at) / RFU OASL (11726364_x_at) / Fold change /veh OASL (11726364_x_at) / RFU SOX15 (11748057_x_at) / Fold change /veh SOX15 (11748057_x_at) / RFU CD79A (11719716_a_at) / Fold change /veh CD79A (11719716_a_at) / RFU HIST1H1D (11736915_at) / Fold change /veh HIST1H1D (11736915_at) / RFU CASKIN2 (11723855_a_at) / Fold change /veh CASKIN2 (11723855_a_at) / RFU LOC730098 (11760151_x_at) / Fold change /veh LOC730098 (11760151_x_at) / RFU OR4N2 (11742367_at) / Fold change /veh OR4N2 (11742367_at) / RFU PRRT2 (11749266_a_at) / Fold change /veh PRRT2 (11749266_a_at) / RFU SNX32 (11753110_a_at) / Fold change /veh SNX32 (11753110_a_at) / RFU CDHR5 (11726645_a_at) / Fold change /veh CDHR5 (11726645_a_at) / RFU RCAN1 (11760418_a_at) / Fold change /veh RCAN1 (11760418_a_at) / RFU FAM167A (11723789_a_at) / Fold change /veh FAM167A (11723789_a_at) / RFU FAM26E (11764081_at) / Fold change /veh FAM26E (11764081_at) / RFU ISYNA1 (11749810_s_at) / Fold change /veh ISYNA1 (11749810_s_at) / RFU ACY1 (11761880_at) / Fold change /veh ACY1 (11761880_at) / RFU 11764098_at / Fold change /veh 11764098_at / RFU SAMD14 (11745864_x_at) / Fold change /veh SAMD14 (11745864_x_at) / RFU NPB (11741838_a_at) / Fold change /veh NPB (11741838_a_at) / RFU TMPRSS6 (11731388_a_at) / Fold change /veh TMPRSS6 (11731388_a_at) / RFU KRTAP10-2 (11738614_at) / Fold change /veh KRTAP10-2 (11738614_at) / RFU ARHGAP8 /// PRR5-ARHGAP8 (11727945_x_at) / Fold change /veh ARHGAP8 /// PRR5-ARHGAP8 (11727945_x_at) / RFU KRTAP5-7 /// NADSYN1 (11734609_at) / Fold change /veh KRTAP5-7 /// NADSYN1 (11734609_at) / RFU RASL12 (11751679_a_at) / Fold change /veh RASL12 (11751679_a_at) / RFU CDKN2B (11736163_a_at) / Fold change /veh CDKN2B (11736163_a_at) / RFU PRF1 (11729649_at) / Fold change /veh PRF1 (11729649_at) / RFU, ZNF638 /// ZNF638-IT1 / Fold change vs veh, ZNF638 /// ZNF638-IT1 / RFU, PANK3 / Fold change vs veh, PANK3 / RFU, SH3YL1 / Fold change vs veh, SH3YL1 / RFU, ZEB2 / Fold change vs veh, ZEB2 / RFU, NRIP1 / Fold change vs veh, NRIP1 / RFU, PTTG1IP / Fold change vs veh, PTTG1IP / RFU, CAPN2 / Fold change vs veh, CAPN2 / RFU, MED14 / Fold change vs veh, MED14 / RFU, SNORA58 / Fold change vs veh, SNORA58 / RFU, C1orf63 / Fold change vs veh, C1orf63 / RFU, LRRFIP1 / Fold change vs veh, LRRFIP1 / RFU, NDUFAF7 / Fold change vs veh, NDUFAF7 / RFU, SLC12A2 / Fold change vs veh, SLC12A2 / RFU, IBTK / Fold change vs veh, IBTK / RFU, ESF1 / Fold change vs veh, ESF1 / Fold change vs veh, TMEM50B / RFU, TAOK1 / Fold change vs veh, TAOK1 / RFU, ACBD3 / Fold change vs veh, ACBD3 / RFU, TMA16 / Fold change vs veh, TMA16 / RFU, RWDD3 / Fold change vs veh, RWDD3 / RFU, BCAT1 / Fold change vs veh, BCAT1 / RFU, EDEM3 / Fold change vs veh, EDEM3 / RFU, TMEM33 / Fold change vs veh, TMEM33 / RFU, WDR75 / Fold change vs veh, WDR75 / RFU, AHCTF1 / Fold change vs veh, AHCTF1 / RFU, TFRC / Fold change vs veh, TFRC / RFU, ZDHHC17 / Fold change vs veh, ZDHHC17 / RFU, NOM1 / Fold change vs veh, NOM1 / RFU, ARL8B / Fold change vs veh, ARL8B / RFU, ZBTB11 / Fold change vs veh, ZBTB11 / RFU, TAMM41 / Fold change vs veh, TAMM41 / RFU, KIAA1704 /// LOC100996395 / Fold change vs veh, KIAA1704 /// LOC100996395 / RFU, ING1 / Fold change vs veh, ING1 / RFU, TRMT61B / Fold change vs veh, TRMT61B / RFU, FUBP3 / Fold change vs veh, FUBP3 / RFU, TP53 / Fold change vs veh, TP53 / RFU, TNKS2 / Fold change vs veh, TNKS2 / RFU, ZFP14 / Fold change vs veh, ZFP14 / RFU, ACTR2 / Fold change vs veh, ACTR2 / RFU, PPP3R1 / Fold change vs veh, PPP3R1 / RFU, PIK3R1 / Fold change vs veh, PIK3R1 / RFU, HNRNPA1 / Fold change vs veh, HNRNPA1 / RFU, RNF170 / Fold change vs veh, RNF170 / RFU, ZNF28 / Fold change vs veh, ZNF28 / RFU, RNGTT / Fold change vs veh, RNGTT / RFU, OGT / Fold change vs veh, OGT / RFU, BRD1 / Fold change vs veh, BRD1 / RFU, MARS / Fold change vs veh, MARS / RFU, ZNF655 / Fold change vs veh, ZNF655 / RFU, FAHD1 / Fold change vs veh, FAHD1 / RFU, BDP1 / Fold change vs veh, BDP1 / RFU, LRRCC1 / Fold change vs veh, LRRCC1 / RFU, ARID1A / Fold change vs veh, ARID1A / RFU, ZNF146 / Fold change vs veh, ZNF146 / RFU, ZNF330 / Fold change vs veh, ZNF330 / RFU, GPN3 / Fold change vs veh, GPN3 / RFU, C9orf123 / Fold change vs veh, C9orf123 / RFU, N4BP2L2 / Fold change vs veh, N4BP2L2 / RFU, ARFIP1 / Fold change vs veh, ARFIP1 / RFU, FAM179B / Fold change vs veh, FAM179B / RFU, BCL10 / Fold change vs veh, BCL10 / RFU, UHRF1BP1L / Fold change vs veh, UHRF1BP1L / RFU, BET1 / Fold change vs veh, BET1 / RFU, CNOT2 / Fold change vs veh, CNOT2 / RFU, ZNF268 / Fold change vs veh, ZNF268 / Fold change vs veh, ZNF507 / RFU, DGCR2 / Fold change vs veh, DGCR2 / RFU, WDSUB1 / Fold change vs veh, WDSUB1 / Fold change vs veh, HSP90B1 /// MIR3652 / RFU, ADSS / Fold change vs veh, ADSS / RFU, GK / Fold change vs veh, GK / RFU, ZNF148 / Fold change vs veh, ZNF148 / RFU, TAF9 / Fold change vs veh, TAF9 / RFU, SLC1A5 / Fold change vs veh, SLC1A5 / RFU, SLMO2 / Fold change vs veh, SLMO2 / RFU, ABCC4 / Fold change vs veh, ABCC4 / RFU, LOC101060439 /// RAP1B / Fold change vs veh, LOC101060439 /// RAP1B / RFU, RFX7 / Fold change vs veh, RFX7 / RFU, GTPBP10 / Fold change vs veh, GTPBP10 / RFU, CNEP1R1 / Fold change vs veh, CNEP1R1 / RFU, BIVM-ERCC5 /// ERCC5 / Fold change vs veh, BIVM-ERCC5 /// ERCC5 / RFU, ILF3 / Fold change vs veh, ILF3 / RFU 11762660_at / Fold change /veh 11762660_at / RFU VCAN (11757783_s_at) / Fold change /veh VCAN (11757783_s_at) / RFU DDX43 (11728927_at) / Fold change /veh DDX43 (11728927_at) / RFU KRT8 (11758188_x_at) / Fold change /veh KRT8 (11758188_x_at) / RFU NKD1 (11759106_at) / Fold change /veh NKD1 (11759106_at) / RFU SRD5A1 (11742802_a_at) / Fold change /veh SRD5A1 (11742802_a_at) / RFU TPSAB1 /// TPSB2 (11721975_s_at) / Fold change /veh TPSAB1 /// TPSB2 (11721975_s_at) / RFU GSTM3 (11746129_a_at) / Fold change /veh GSTM3 (11746129_a_at) / RFU IL23R (11737362_x_at) / Fold change /veh IL23R (11737362_x_at) / RFU TMEM51 (11727254_a_at) / Fold change /veh TMEM51 (11727254_a_at) / RFU PIWIL2 (11732686_x_at) / Fold change /veh PIWIL2 (11732686_x_at) / RFU ORM1 (11744905_x_at) / Fold change /veh ORM1 (11744905_x_at) / RFU CCDC152 (11743942_at) / Fold change /veh CCDC152 (11743942_at) / RFU ECM1 (11717891_a_at) / Fold change /veh ECM1 (11717891_a_at) / RFU IL23R (11748794_a_at) / Fold change /veh IL23R (11748794_a_at) / RFU TNFAIP8L3 (11732012_x_at) / Fold change /veh TNFAIP8L3 (11732012_x_at) / RFU MBOAT4 (11741988_at) / Fold change /veh MBOAT4 (11741988_at) / RFU 11764193_at / Fold change /veh 11764193_at / RFU TMEM53 (11763286_at) / Fold change /veh TMEM53 (11763286_at) / RFU MAGEB2 (11727129_at) / Fold change /veh MAGEB2 (11727129_at) / RFU TMEM200A (11744735_a_at) / Fold change /veh TMEM200A (11744735_a_at) / RFU CCDC152 (11751479_a_at) / Fold change /veh CCDC152 (11751479_a_at) / RFU FAM211A (11726209_a_at) / Fold change /veh FAM211A (11726209_a_at) / RFU RGS16 (11746705_a_at) / Fold change /veh RGS16 (11746705_a_at) / RFU VCAN (11755009_s_at) / Fold change /veh VCAN (11755009_s_at) / RFU RHOB (11743442_s_at) / Fold change /veh RHOB (11743442_s_at) / RFU RGS16 (11720943_a_at) / Fold change /veh RGS16 (11720943_a_at) / RFU RGS16 (11720944_at) / Fold change /veh RGS16 (11720944_at) / RFU, VPS4B / Fold change vs veh, VPS4B / RFU, CREB1 / Fold change vs veh, CREB1 / RFU, DNAJC13 / Fold change vs veh, DNAJC13 / RFU, GNAQ / Fold change vs veh, GNAQ / RFU, CDK5R1 / Fold change vs veh, CDK5R1 / RFU, ZRANB3 / Fold change vs veh, ZRANB3 / RFU, CUL4A / Fold change vs veh, CUL4A / RFU, CCNY / Fold change vs veh, CCNY / RFU, UFL1 / Fold change vs veh, UFL1 / RFU, COG3 / Fold change vs veh, COG3 / RFU, DIAPH2 / Fold change vs veh, DIAPH2 / RFU, SKA2 / Fold change vs veh, SKA2 / RFU, AFF3 / Fold change vs veh, AFF3 / RFU, LMF1 / Fold change vs veh, LMF1 / RFU, IPO11 / Fold change vs veh, IPO11 / RFU, DFFB / Fold change vs veh, DFFB / RFU, FOXP1 / Fold change vs veh, FOXP1 / RFU, CARD8 / Fold change vs veh, CARD8 / RFU, STRN3 / Fold change vs veh, STRN3 / RFU, ADK / Fold change vs veh, ADK / RFU, RASSF2 / Fold change vs veh, RASSF2 / RFU, WIPF1 / Fold change vs veh, WIPF1 / RFU, LARP1B / Fold change vs veh, LARP1B / RFU, RASA1 / Fold change vs veh, RASA1 / RFU, RB1 / Fold change vs veh, RB1 / RFU, PPFIA1 / Fold change vs veh, PPFIA1 / RFU, MAT2A / Fold change vs veh, MAT2A / RFU, CCT5 / Fold change vs veh, CCT5 / RFU, WDR92 / Fold change vs veh, WDR92 / RFU, CUX1 / Fold change vs veh, CUX1 / RFU, TTC7A / Fold change vs veh, TTC7A / RFU, TMEM135 / Fold change vs veh, TMEM135 / RFU, DEPTOR / Fold change vs veh, DEPTOR / RFU, CPM / Fold change vs veh, CPM / RFU, DNAJB6 / Fold change vs veh, DNAJB6 / RFU, CACNA2D3 / Fold change vs veh, CACNA2D3 / RFU, DTX4 / Fold change vs veh, DTX4 / RFU, TFCP2 / Fold change vs veh, TFCP2 / RFU, GMCL1 /// GMCL1P1 / Fold change vs veh, GMCL1 /// GMCL1P1 / RFU, AEBP2 / Fold change vs veh, AEBP2 / RFU, SNHG1 /// SNORD22 /// SNORD25 /// SNORD26 /// SNORD27 /// SNORD28 /// SNORD29 /// SNORD31 / Fold change vs veh, SNHG1 /// SNORD22 /// SNORD25 /// SNORD26 /// SNORD27 /// SNORD28 /// SNORD29 /// SNORD31 / Fold change (Aza/veh), C12orf56 (ProbeSet 11735607_a_at) / Fold change (ACY-1035/veh), C12orf56 (ProbeSet 11735607_a_at) / Fold change (Aza/veh), FGFR1OP (ProbeSet 11751329_s_at) / Fold change (ACY-1035/veh), FGFR1OP (ProbeSet 11751329_s_at) / Fold change (Aza/veh), VPS36 (ProbeSet 11739960_a_at) / Fold change (ACY-1035/veh), VPS36 (ProbeSet 11739960_a_at) / RFU SYPL1 (11715823_x_at) / Fold change /veh SYPL1 (11715823_x_at) / RFU IGFBP7 (11715501_s_at) / Fold change /veh IGFBP7 (11715501_s_at) / RFU REEP3 (11722064_at) / Fold change /veh REEP3 (11722064_at) / RFU IGLL1 (11728026_x_at) / Fold change /veh IGLL1 (11728026_x_at): dose or concentration left out as unconfirmed
Conditions: ProbeSet 11715478_a_at; LIST B

Question: How did the “RFU, TFRC” value turn out when `Nc1ncn([C@@H]2O[C@H](CO)[C@@H](O)[C@H]2O)c(=O)n1` [azacitidine] was run?
Answer: The value was 131.21 RFU.
